Measured values from patent US20060039985A1, “Methotrexate compositions” (priority 2004, published 2006).

Key:
Format in all cases: physicochemical
[1] = Modulated differential scanning calorimetry (MDSC) study; details: MDSC heating, 2° C./minute
Experimental: MDSC studies were performed using a TA 2920 instrument (TA instruments, New Castle, Del.). A sample (5-10 mg) of the powder was filled into an aluminum DSC pan in a glove box, with the relative humidity maintained under 1%, and hermetically sealed using a sample encapsulation press. Helium was used as a purge at 30 cm^3/minute; the Refrigerated Control System (RCS) used helium at a flow rate of 110 cm^3/minute. The MDSC protocol was as follows: equilibrate at 0° C.; modulate ±0.318° C. every 60 seconds; ramp 2° C./minute to 200° C.; isothermal for 5 minutes; ramp 10° C./minute to 0° C.; isothermal for 5 minutes; modul 0.318° C. every 60 seconds; ramp 2° C./minute to 280° C.

[2] = Solubility in REDISPERSE organic solvent (noted in the PLM study)
Experimental: PLM and hot stage microscopy studies were done using a Nikon (Melville, N.Y.) Optihot-2 polarizing microscope. A Mettler (Columbus, Ohio) Toledo FP82HT hot stage attachment provided the variable temperature analyses from room temperature to 250° C. at 10° C. per minute. Photomicrographs were taken using a Nikon 35 mm attachment using either a 20× or 40× objective. Microscope slides and coverslips were cleaned with methanol prior to use.
Birefringence persisted after quench cooling from […]

[3] = Karl Fisher moisture determination; details: Karl Fisher potentiometric titration; powder in formamide; 0.6 % RSD
Experimental: Moisture content in methotrexate powder was measured by Karl Fisher potentiometric titration by direct injection using a Mitsubishi model CA-06 moisturemeter (Mitsubishi Kasei Corporation, Japan). The powder was dissolved/dispersed in 2.5 mL formamide and 1 mL of the solution was injected […]. Titration checks were made by injecting water standards, Mitsubishi (catalogue number MC02020), at several time intervals.

[4] = Dynamic vapor sorption (DVS) study; details: 25° C.
Experimental: Water sorption/desorption studies were conducted on a DVS-1000 moisture balance system (Surface Measurement Systems, UK). A sample (15-30 mg) was initially dried at 25° C. until a constant weight was achieved. The relative humidity was increased from 0 to 90% (with 5% relative humidity increments). Each successive increment was initiated when the change in weight at a given relative humidity was smaller than 5 μg over 5 minutes. Once the sample was exposed to 90% relative humidity, the process was reversed from 90% to 0 relative humidity (with 10% relative humidity increments).

Decomposition temperature [1]: 246-250 °C
Solubility in REDISPERSE brand of solvent [2]: insoluble
Moisture content [3]: 7.1%
Relative humidity at which signs of moisture-induced crystallization are observed in DVS time profile [4]: 70 % relative humidity
Hysteresis upon desorption of water ([4]; 90% to 0 relative humidity): no hysteresis
Absorption of water, % of its weight ([4]; at 90% relative humidity): about 13.5%
Storage relative humidity for long term stability of liquid crystalline phase ([4]; suggested by DVS data): below 70 % relative humidity
SMILES: CN(Cc1cnc2nc(N)nc(N)c2n1)c1ccc(C(=O)N[C@@H](CCC(=O)O)C(=O)O)cc1 [methotrexate]
Hygroscopicity compared to crystalline material [4]: hygroscopic than the crystalline material
